Reference: US20220315554A1, “COMPOUNDS COMPRISING A […] LIGAND AND USE THEREOF” (priority 2019, published 2022)
Numbered stars: 1 amine (or outer) side, 2 acyl side, 3 side chain; on linkers, the order of the positions; unused ones are H or OH. Bridge positions count the residues as written; N and C are the ends. Square brackets hold non-standard residues; d marks the D form. Peptide text beside a SMILES is read from it. * marks the point of attachment. X19 = NC(=O)[C@H](CCCCNC(=O)CN1CCN(CC(=O)O)CCN(CC(=O)O)CCN(CC(=O)O)CC1)NC(=O)CCC(=O)NCCCOCCOCCNCCCN*; TBMB(SCH2CH2NH-DOTA) = O=C(O)CN1CCN(CC(=O)O)CCN(CC(=O)NCCSCc2cc(C[*:1])cc(C[*:2])c2)CCN(CC(=O)O)CC1; X3 = NC(=O)[C@H](CCCCNC(=O)CN1CCN(CC(=O)O)CCN(CC(=O)O)CCN(CC(=O)O)CC1)NC(=O)CCC(=O)NCCCOCCOCCOCCCN*; mXylylene = c1cc(C[*:1])cc(C[*:2])c1; 3Amb = NCc1cccc(C(=O)O)c1; 4Amb = NCc1ccc(C(=O)O)cc1; Hexanoyl = CCCCCC(=O)*; GABA = NCCCC(=O)O

What was measured:
[1] = target: T1, Human recombinant FAP (Homo sapiens, UniProt Q12884); assay: FRET-based FAP protease activity assay; type: biochemical; set-up: purchased R&D systems 3715-SE; conditions: pIC50 Category (Activity), FRET substrate, 37° C.
T1 sequence (Q12884 1-760): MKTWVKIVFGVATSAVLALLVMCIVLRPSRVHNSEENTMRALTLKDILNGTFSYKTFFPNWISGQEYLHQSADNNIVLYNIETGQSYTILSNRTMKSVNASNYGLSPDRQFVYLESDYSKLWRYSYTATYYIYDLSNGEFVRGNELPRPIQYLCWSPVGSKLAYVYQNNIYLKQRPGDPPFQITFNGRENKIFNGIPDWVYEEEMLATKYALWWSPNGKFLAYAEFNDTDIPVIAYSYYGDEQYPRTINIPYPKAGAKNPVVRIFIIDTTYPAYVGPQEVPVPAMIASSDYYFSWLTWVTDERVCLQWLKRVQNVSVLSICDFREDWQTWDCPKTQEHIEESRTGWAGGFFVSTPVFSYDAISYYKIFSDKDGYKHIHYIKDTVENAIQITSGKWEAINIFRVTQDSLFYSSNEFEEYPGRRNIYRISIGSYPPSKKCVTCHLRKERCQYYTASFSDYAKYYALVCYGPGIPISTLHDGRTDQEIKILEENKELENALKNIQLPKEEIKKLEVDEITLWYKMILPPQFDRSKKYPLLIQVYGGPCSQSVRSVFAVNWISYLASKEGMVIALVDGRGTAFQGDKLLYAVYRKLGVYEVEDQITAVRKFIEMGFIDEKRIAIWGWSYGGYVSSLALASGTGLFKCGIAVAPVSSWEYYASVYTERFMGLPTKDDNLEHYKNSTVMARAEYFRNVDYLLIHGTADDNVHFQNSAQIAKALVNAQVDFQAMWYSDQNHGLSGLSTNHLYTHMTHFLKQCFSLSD

[2] = target: T1, Human recombinant FAP; assay: Surface plasmon resonance (Biacore) assay; type: binding
[3] = target: T2, FAP-expressing human WI-38 fibroblasts (Homo sapiens, UniProt Q12884); assay: Competitive FACS binding assay; conditions: pIC50 Category (FACS), competition with 3 nM Cy5-labeled compound, 4° C., 1 hour
T2 construct: FAP-expressing human WI-38 fibroblasts (ECACC) were cultured in EMEM; host or cells: WI-38 human fibroblasts
T2 sequence (Q12884 1-760): T1 sequence (Q12884 1-760)
Protocol: Cells were analyzed in an Attune NxT flow cytometer. […]

| Structure (SMILES) | IC50 ([1]; recombinant human FAP) [nM] | Kd [2] [nM] | IC50 ([3]; WI-38 fibroblasts) [nM] | IC50 [1] [nM] | IC50 [3] [nM] |
| --- | --- | --- | --- | --- | --- |
| CCCCCC(=O)N[C@H]1CSCc2cccc(c2)CSC[C@@H](C(=O)N[C@@H](CC(=O)O)C(N)=O)NC(=O)[C@H](Cc2ccccc2)NC(=O)[C@H](CCC(=O)O)NC(=O)[C@H]([C@@H](C)O)NC(=O)[C@@H]2CCCN2C(=O)[C@@H]2CCCN2C1=O [3BP-3288, Hex-[Cys(3MeBn)-Pro-Pro-Thr-Glu-Phe-Cys]-Asp-NH2] (Hexanoyl-CPPTEFCD-NH2; linker 1-7 via mXylylene) | < 10 | < 10 | < 10 | – | – |
| CCCCCC(=O)N[C@H]1CSCc2cccc(c2)CSC[C@@H](C(=O)N[C@@H](CC(=O)O)C(=O)NCCCC(=O)N[C@@H](CCCNC(=N)N)C(N)=O)NC(=O)[C@H](Cc2ccccc2)NC(=O)[C@H](CCC(=O)O)NC(=O)[C@H]([C@@H](C)O)NC(=O)[C@@H]2CCCN2C(=O)[C@@H]2CCCN2C1=O [3BP-3300, Hex-[Cys(3MeBn)-Pro-Pro-Thr-Glu-Phe-Cys]-Asp-Gab-Arg-NH2] (Hexanoyl-CPPTEFCD[GABA]R-NH2; linker 1-7 via mXylylene) | < 10 | < 10 | < 10 | – | – |
| CCCCCC(=O)N[C@H]1CSCc2cccc(c2)CSC[C@@H](C(=O)N[C@@H](CC(=O)O)C(=O)NCc2ccc(C(=O)N[C@@H](CCCNC(=N)N)C(N)=O)cc2)NC(=O)[C@H](Cc2ccccc2)NC(=O)[C@H](CCC(=O)O)NC(=O)[C@H]([C@@H](C)O)NC(=O)[C@@H]2CCCN2C(=O)[C@@H]2CCCN2C1=O [3BP-3301, Hex-[Cys(3MeBn)-Pro-Pro-Thr-Glu-Phe-Cys]-Asp-Pamb-Arg-NH2] (Hexanoyl-CPPTEFCD[4Amb]R-NH2; linker 1-7 via mXylylene) | < 10 | < 10 | < 10 | – | – |
| CCCCCC(=O)N[C@H]1CSCc2cccc(c2)CSC[C@@H](C(=O)N[C@@H](CC(=O)O)C(=O)NCc2cccc(C(=O)N[C@@H](CCCNC(=N)N)C(N)=O)c2)NC(=O)[C@H](Cc2ccccc2)NC(=O)[C@H](CCC(=O)O)NC(=O)[C@H]([C@@H](C)O)NC(=O)[C@@H]2CCCN2C(=O)[C@@H]2CCCN2C1=O [3BP-3324, Hex-[Cys(3MeBn)-Pro-Pro-Thr-Glu-Phe-Cys]-Asp-Mamb-Arg-NH2] (Hexanoyl-CPPTEFCD[3Amb]R-NH2; linker 1-7 via mXylylene) | < 10 | < 10 | < 10 | – | – |
| CCCCCC(=O)N[C@H]1CSCc2cccc(c2)CSC[C@@H](C(=O)N[C@@H](CC(=O)O)C(=O)NCCCNCCOCCOCCCNC(=O)CCC(=O)N[C@@H](CCCCNC(=O)CN2CCN(CC(=O)O)CCN(CC(=O)O)CCN(CC(=O)O)CC2)C(N)=O)NC(=O)[C@H](Cc2ccccc2)NC(=O)[C@H](CCC(N)=O)NC(=O)[C@H]([C@@H](C)O)NC(=O)[C@@H]2CCCN2C(=O)[C@@H]2CCCN2C1=O [3BP-3395, Hex-[Cys(3MeBn)-Pro-Pro-Thr-Gln-Phe-Cys]-Asp-Ttds-Lys(DOTA)-NH2] (Hexanoyl-CPPTQFCD-X19; linker 1-7 via mXylylene) | < 10 | < 10 | < 10 | – | – |
| CCCCCC(=O)N[C@H]1CSCc2cc(CSCCNC(=O)CCP(=O)(O)CN3CCN(CP(=O)(O)CO)CCN(CP(=O)(O)CO)CC3)cc(c2)CSC[C@@H](C(=O)O)NC(=O)[C@H](Cc2ccccc2)NC(=O)[C@H](CCC(N)=O)NC(=O)[C@H]([C@@H](C)O)NC(=O)[C@@H]2CCCN2C(=O)[C@@H]2CCCN2C1=O [3BP-4380, Hex-[Cys-(tMeBn(NOPO-AET))-Pro-Pro-Thr-Gln-Phe-Cys]-OH] | – | – | – | < 10 | < 10 |
| CCCCCC(=O)N[C@H]1CSCc2cc(CSCCNC(=O)CCc3ccc(O)c(CN(CCN(CC(=O)O)Cc4cc(CCC(=O)O)ccc4O)CC(=O)O)c3)cc(c2)CSC[C@@H](C(=O)O)NC(=O)[C@H](Cc2ccccc2)NC(=O)[C@H](CCC(N)=O)NC(=O)[C@H]([C@@H](C)O)NC(=O)[C@@H]2CCCN2C(=O)[C@@H]2CCCN2C1=O [3BP-4381, Hex-[Cys-(tMeBn(HBED-AET))-Pro-Pro-Thr-Gln-Phe-Cys]-OH] | – | – | – | 10 to 79.4 | 10 to 79.4 |
| CCCCCC(=O)N[C@H]1CSCc2cc(CSCCNC(=O)CCCCC3(N(C)CC(=O)O)CN(CC(=O)O)CCN(CC(=O)O)C3)cc(c2)CSC[C@@H](C(=O)O)NC(=O)[C@H](Cc2ccccc2)NC(=O)[C@H](CCC(N)=O)NC(=O)[C@H]([C@@H](C)O)NC(=O)[C@@H]2CCCN2C(=O)[C@@H]2CCCN2C1=O [3BP-4382, Hex-[Cys-(tMeBn(DATA-AET))-Pro-Pro-Thr-Gln-Phe-Cys]-OH] | – | – | – | 10 to 79.4 | 10 to 79.4 |
| CCCCCC(=O)N[C@H]1CSCc2cc(CSCCNC(=O)CCC(=O)NCCCOCCOCCOCCCNC(=O)CCP(=O)(O)CN3CCN(CP(=O)(O)CO)CCN(CP(=O)(O)CO)CC3)cc(c2)CSC[C@@H](C(=O)O)NC(=O)[C@H](Cc2ccccc2)NC(=O)[C@H](CCC(N)=O)NC(=O)[C@H]([C@@H](C)O)NC(=O)[C@@H]2CCCN2C(=O)[C@@H]2CCCN2C1=O [3BP-4385, Hex-[Cys(tMeBn(NOPO-Ttds-AET))-Pro-Pro-Thr-Gln-Phe-Cys]-OH] | – | – | – | 10 to 79.4 | 10 to 79.4 |
| CCCC(NC(=O)CCC(=O)NCCCOCCOCCOCCCNC(=O)CN1CCN(CC(=O)O)CCN(CC(=O)O)CCN(CC(=O)O)CC1)C(=O)N[C@H]1CSCc2cc(CSCCNC(=O)CN3CCN(CC(=O)O)CCN(CC(=O)O)CCN(CC(=O)O)CC3)cc(c2)CSC[C@@H](C(=O)O)NC(=O)[C@H](Cc2ccccc2)NC(=O)[C@H](CCC(N)=O)NC(=O)[C@H]([C@@H](C)O)NC(=O)[C@@H]2CCCN2C(=O)[C@@H]2CCCN2C1=O (stereo partly drawn) [3BP-4386, DOTA-Ttds-Nle-[Cys(tMeBn(DOTA-AET))-Pro-Pro-Thr-Gln-Phe-Cys]-OH] | – | – | – | 10 to 79.4 | 10 to 79.4 |
| CCCCCC(=O)N[C@H]1CSCc2cc(CSCCNC(=O)CN3CCN(CC(=O)O)CCN(CC(=O)O)CCN(CC(=O)O)CC3)cc(c2)CSC[C@@H](C(=O)N[C@@H](CC(=O)O)C(=O)NCCCOCCOCCOCCCNC(=O)CCC(=O)N[C@@H](CCCCNC(=O)CN2CCN(CC(=O)O)CCN(CC(=O)O)CCN(CC(=O)O)CC2)C(N)=O)NC(=O)[C@H](Cc2ccccc2)NC(=O)[C@H](CCC(N)=O)NC(=O)[C@H]([C@@H](C)O)NC(=O)[C@@H]2CCCN2C(=O)[C@@H]2CCCN2C1=O [3BP-4391, Hex-[Cys(tMeBn(DOTA-AET))-Pro-Pro-Thr-Gln-Phe-Cys]-Asp-Ttds-Lys(DOTA)-NH2] (Hexanoyl-CPPTQFCD-X3; linker 1-7 via TBMB(SCH2CH2NH-DOTA)) | – | – | – | < 10 | < 10 |
| CCCC(NC(=O)CCC(=O)NCCCOCCOCCOCCCNC(=O)CN1CCN(CC(=O)O)CCN(CC(=O)O)CCN(CC(=O)O)CC1)C(=O)N[C@H]1CSCc2cc(CSCCNC(=O)CN3CCN(CC(=O)O)CCN(CC(=O)O)CCN(CC(=O)O)CC3)cc(c2)CSC[C@@H](C(=O)N[C@@H](CC(=O)O)C(=O)NCCCOCCOCCOCCCNC(=O)CCC(=O)N[C@@H](CCCCNC(=O)CN2CCN(CC(=O)O)CCN(CC(=O)O)CCN(CC(=O)O)CC2)C(N)=O)NC(=O)[C@H](Cc2ccccc2)NC(=O)[C@H](CCC(N)=O)NC(=O)[C@H]([C@@H](C)O)NC(=O)[C@@H]2CCCN2C(=O)[C@@H]2CCCN2C1=O (stereo partly drawn) [3BP-4392, DOTA-Ttds-Nle-[Cys(tMeBn(DOTA-AET))-Pro-Pro-Thr-Gln-Phe-Cys]-Asp-Ttds-Lys(DOTA)-NH2] | – | – | – | 10 to 79.4 | 10 to 79.4 |
| CCCC(NC(=O)CCC(=O)NCCCOCCOCCOCCCNC(=O)CN1CCN(CC(=O)O)CCN(CC(=O)O)CCN(CC(=O)O)CC1)C(=O)N[C@H]1CSCc2cccc(c2)CSC[C@@H](C(=O)N[C@@H](CC(=O)O)C(=O)NCCCOCCOCCOCCCNC(=O)CCC(=O)N[C@@H](CCCCNC(=O)CN2CCN(CC(=O)O)CCN(CC(=O)O)CCN(CC(=O)O)CC2)C(N)=O)NC(=O)[C@H](Cc2ccccc2)NC(=O)[C@H](CCC(N)=O)NC(=O)[C@H]([C@@H](C)O)NC(=O)[C@@H]2CCCN2C(=O)[C@@H]2CCCN2C1=O (stereo partly drawn) [3BP-4393, DOTA-Ttds-Nle-[Cys(3MeBn)-Pro-Pro-Thr-Gln-Phe-Cys]-Asp-Ttds-Lys(DOTA)-NH2] | – | – | – | < 10 | < 10 |
